Reference: patent publication US7351690B2, “Knockout identification of target-specific sites in peptides” (priority 2000, dated 2008)
Square brackets hold non-standard residues; d marks the D form. Primed or numbered codes have the meaning given here. Ends that are not written are not given here. Nle = CCCC[C@H](N)C(=O)O; dH′ = not defined here

Test system: bombesin receptor
Assay: competitive binding assay, 125I-Bombesin, rat brain membranes
Conditions: not given
Experimental: Rat brain membranes were utilized as the source of bombesin receptor. The competitive binding assay was performed using a procedure as described by Moody T W, Perk C B, Rivier J, Brown, M R. (Proc Natl Acad Sci USA. 75:5372-5376, […]) and adapted to a 96 well format. An aliquot of membranes taken in assay buffer (50 mM Tris and HCl, pH 7.4 containing 1 mg/mL BSA and 2 μg/mL bacitracin) was incubated with 0.01 nM of ^125I-Bombesin with or without varying concentrations of the test compound for 60 min at 4° C. The incubation was terminated by rapid filtration of the assay mixture, followed by washing the filters with ice-cold buffer. The filters were dried and counted in a gamma counter for retained radioactivity. Non-specific binding was measured by including 1 μM Bombesin in the assay tube. The assay was performed in triplicate and results calculated to determine percentage inhibition of the ^125I-Bombesin binding to its receptors by a test compound. The parent polypeptide is shown in Table 6, with metallopeptides having Cys inserted as shown.

Substance | binding to bombesin receptor, in words
D-Phe-Gln-Cys-Ala-Val-Gly-His-Leu-Leu-NH2 ([dF]QCAVGHLL-NH2; also: oxorhenium(V) N3S1 tetradentate complex via Cys) [9-7] | least activity
D-Phe-Gln-Trp-Ala-Cys-Gly-His-Leu-Leu-NH2 ([dF]QWACGHLL-NH2; also: oxorhenium(V) N3S1 tetradentate complex via Cys) [9-5] | least activity
D-Phe-Gln-Trp-Ala-Cys-Val-Gly-His-Leu-Leu-NH2 ([dF]QWACVGHLL-NH2; also: oxorhenium(V) N3S1 chelate via Cys (Re(V)=O)) [8-6] | least activity

Same assay, conditions: inhibition of 0.01 nM 125I-Bombesin binding; rat brain membranes; test concentration not given

Substance | % Inhibition
Ac-Ala-Gln-Cys-Arg-Leu-Gly-Asn-Gln-Trp-Ala-Val-Gly-His-Leu-Nle-NH2 (Ac-AQCRLGNQWAVGHL[Nle]-NH2; also: oxorhenium(V) N3S1 tetradentate complex via Cys) [6-13] | 99%
Ac-Ala-Gln-Cys-Leu-Gly-Asn-Gln-Trp-Ala-Val-Gly-His-Leu-Nle-NH2 (Ac-AQCLGNQWAVGHL[Nle]-NH2; also: oxorhenium(V) N3S1 tetradentate complex via Cys) [7-12] | 96%
Ala-Val-Cys-His-Leu-Leu-NH2 (AVCHLL-NH2; not fully specified (bridges); printed as Ala-Val-Cys-His-Leu-Leu-NH2; also: oxorhenium(V) N3S1 chelate (Re(V)=O)) [11-6] | 6%
Ala-Val-Cys-His-Leu-NH2 (AVCHL-NH2; not fully specified (bridges); printed as Ala-Val-Cys-His-Leu-NH2; also: oxorhenium(V) N3S1 chelate (Re(V)=O)) [11-9] | 7%
Ala-Val-Cys-His-NH2 (AVCH-NH2; not fully specified (bridges); printed as Ala-Val-Cys-His-NH2; also: oxorhenium(V) N3S1 chelate (Re(V)=O)) [11-12] | 5%
Ala-Val-Cys-NH2 (not fully specified (bridges); printed as Ala-Val-Cys-NH2; also: oxorhenium(V) N3S1 chelate (Re(V)=O)) [11-15] | 4%
D-Phe-Gln-Cys-Ala-Val-Gly-His-Leu-Leu-NH2 ([dF]QCAVGHLL-NH2; also: oxorhenium(V) N3S1 tetradentate complex via Cys) [9-7] | 19%
D-Phe-Gln-Cys-Trp-Ala-Val-Gly-His-Leu-Leu-NH2 ([dF]QCWAVGHLL-NH2; also: oxorhenium(V) N3S1 tetradentate complex via Cys) [8-8] | 62%
D-Phe-Gln-D-Trp-Ala-Val-Cys-His-Leu-Leu-NH2 ([dF]Q[dW]AVCHLL-NH2; numbers in words are those of the source; also: oxorhenium(V) N3S1 tetradentate complex via Cys) [10-5] | 6%
D-Phe-Gln-Trp-Ala-Cys-Gly-His-Leu-Leu-NH2 ([dF]QWACGHLL-NH2; also: oxorhenium(V) N3S1 tetradentate complex via Cys) [9-5] | 17%
D-Phe-Gln-Trp-Ala-Cys-Val-Gly-His-Leu-Leu-NH2 ([dF]QWACVGHLL-NH2; also: oxorhenium(V) N3S1 chelate via Cys (Re(V)=O)) [8-6] | 35%
D-Phe-Gln-Trp-Ala-Cys-Val-His-Leu-Leu-NH2 ([dF]QWACVHLL-NH2; also: rhenium complex (oxorhenium(V) N3S1 chelate via Cys)) [12-2] | 3%
D-Phe-Gln-Trp-Ala-Val-Cys-D-His-Leu-Leu-NH2 ([dF]QWAVC[dH′]LL-NH2; also: oxorhenium(V) N3S1 chelate via Cys (Re(V)=O)) [10-1] | 10%
D-Phe-Gln-Trp-Ala-Val-Cys-Gly-His-Leu-Leu-NH2 ([dF]QWAVCGHLL-NH2; also: oxorhenium(V) N3S1 chelate via Cys (Re(V)=O)) [8-5] | 70%
D-Phe-Gln-Trp-Ala-Val-Cys-His-Leu-Leu-NH2 ([dF]QWAVCHLL-NH2; also: Re metal complex (oxorhenium(V) N3S1 chelate via Cys)) [9-4] | 75%
D-Phe-Gln-Trp-Ala-Val-Cys-His-Leu-NH2 ([dF]QWAVCHL-NH2; also: oxorhenium(V) N3S1 chelate via Cys (Re(V)=O)) [11-1] | 98%
D-Phe-Gln-Trp-Ala-Val-Cys-His-NH2 ([dF]QWAVCH-NH2; also: oxorhenium(V) N3S1 chelate via Cys (Re(V)=O)) [11-2] | 25%
